Results from patent publication US11879021B2, “Cyclic peptides and uses thereof” (UNIVERSITÉ DE MONTRÉAL, priority 2016, dated 2024).
Values joined by “and” are separate entries in the source; they are usually repeats but may differ in a detail not shown here. Equal values may be shown once. Numbered stars: 1 amine (or outer) side, 2 acyl side, 3 side chain; on linkers, the order of the positions; unused ones are H or OH. Square brackets hold non-standard residues; d marks the D form. Peptide text beside a SMILES is read from it. azaTyr = O=C(N(Cc1ccc(O)cc1)N[*:1])[*:2]

What was measured:
CD36 = target: T1, CD36 (Rattus norvegicus, UniProt Q07969); experiment: Competition binding of photoactivatable [125I]-Tyr-Bpa-Ala-Hexarelin to CD36 in rat cardiac membranes; conditions: competition with [125I]-Tyr-Bpa-Ala-Hexarelin, rat heart membranes; for IC50: read-out: IC50 (μM), binding affinity for CD36
T1 construct: from tissue; host or cells: Heart (cardiac membranes) of Sprague Dawley rats from Charles River
T1 sequence (Q07969 whole entry): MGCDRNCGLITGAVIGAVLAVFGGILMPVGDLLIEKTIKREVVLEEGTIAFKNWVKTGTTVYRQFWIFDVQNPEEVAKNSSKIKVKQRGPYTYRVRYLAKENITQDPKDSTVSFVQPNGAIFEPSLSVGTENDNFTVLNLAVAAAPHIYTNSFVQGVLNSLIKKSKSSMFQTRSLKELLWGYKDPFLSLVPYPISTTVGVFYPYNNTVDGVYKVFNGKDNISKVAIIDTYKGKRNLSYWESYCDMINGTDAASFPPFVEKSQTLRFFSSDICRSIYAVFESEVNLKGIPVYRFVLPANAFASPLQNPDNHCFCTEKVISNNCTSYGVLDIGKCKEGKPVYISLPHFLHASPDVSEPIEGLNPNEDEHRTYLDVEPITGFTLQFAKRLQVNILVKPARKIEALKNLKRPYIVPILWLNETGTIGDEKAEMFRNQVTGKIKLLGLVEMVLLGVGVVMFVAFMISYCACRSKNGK
Protocol: Hearts from Sprague Dawley rats (300-325 g) from Charles River were cut into small pieces and homogenized with a Polytron® at low speed, 3×15 sec in buffer A (10 mM NaHCO3, 5 mM NaN3, 10 μM Pefabloc®, 0.1 μM Aprotinin, 1 μM Pepstatin A, 1 μM Leupeptin, pH 7.0) at a concentration of […] of tissue. The homogenate was first centrifuged at 8,700×g for 20 min in a Sorvall® centrifuge and the supernatant was collected on ice. The pellet was resuspended and re-homogenized with a Glass-Teflon® Potter by 5 strokes. This homogenate was recentrifuged at 8,700×g for 10 min and the resulting supernatant was combined with the first collected supernatant. The combined supernatant was centrifuged at 35,000×g for 20 min. The pellet fraction obtained was resuspended in Buffer B (20 mM Tris-maleate, 0.6M KCl, pH 6.8) in a volume corresponding to 20 mL/g of fresh tissue using a glass homogenizer with a Teflon pestle. The resulting suspension was centrifuged again at 35,000×g for 60 min. and the pellet fraction obtained was resuspended in Buffer C (10 mM Tris/HCl buffer pH 7.4) and thoroughly homogenized in a glass with a Teflon® pestle (20 ml/g of fresh tissue). This suspension was submitted to another centrifugation at 35,000×g for 60 min. The collected pellet was resuspended in 50 mM Tris/HCl buffer pH 7.4) containing 2 mM EGTA in a final volume corresponding to 1-2 mL/g of fresh tissue. The membrane preparation obtained was frozen at −80° C. Protein concentration was determined using the bicinchoninic acid (BCA) method, employing BSA as standard.
The reaction was started by adding 3 nmol of H2O2 for 5 min at room temperature. This step was repeated twice with a period of 5 min of incubation for each addition. The reaction was stopped by diluting the mixture with 1 mL of 0.1% TFA. The radioiodinated peptide was purified by HPLC on a reverse-phase Vydac® C18 column with a 60-min linear gradient from 20% to 50% of acetonitrile in 0.1% TFA. The eluted radiolabelled tracer was collected, aliquoted (50×10^6 cpm/fraction) and stored at −80° C.
Binding studies with MPE-298 were done with increasing concentrations from 0.01 to 5 μM of competition ligands. Nonspecific binding was defined as binding not displaced by 50 μM corresponding peptide. All peptide containing solutions were diluted in Buffer B. Buffer A and B were degassed under vacuum, and used in capped tubes in order to minimize lipid peroxidation. Before the incubation period, all tubes were put under a low flow of nitrogen. All material was kept on ice and the binding assay was performed in darkness. After an incubation period of 60 min at 22° C. (vortexing every 15 min), membranes were submitted to irradiation with UV lamps (365 nm) for 15 min at 4° C. After centrifugation at 12,000×g for 15 minutes, the pellets were resuspended in 40 μl of sample buffer (62 mM Tris-HCl, pH 6.8, 2% SDS, 10% glycerol, 15% 2-mercaptoethanol, and 0.05% bromophenol blue), and boiled for 5 min prior to being subjected to electrophoresis. Proteins (50 μg/40 μl) were separated on a 7.5% SDS-PAGE Bio-Rad® Mini-Protean electrophoresis system (150 V for 1 h). The gels resulting from SDS/PAGE were fixed, colored in Coomassie Brilliant Blue R-250, dried, exposed to a storage phosphor intensifying screen (Amersham Biosciences), and analysed using a Typhoon® PhosphorImager (GE Healthcare Life Sciences®). […] The curves were analysed by using software package (Graphpad® prism version 7.0).

[1] = system: R-FSL-1 (TLR2 agonist)-induced NO production in RAW macrophage cell line; experiment: Nitric oxide (NO) production induced by TLR2 agonist R-FSL-1 in RAW macrophage cell line; format: cell-based, murine; conditions: RAW macrophages; for suppression of R-FSL-1-mediated NO production: at the concentration tested (10^−6 or 10^−7 M), FIGS. 4A to 4F
Protocol: The murine RAW1 macrophage cell line was obtained from American Type Cell Collection (ATCC #TIB-71), seeded at 1.5×10^5 cells/well in Dulbecco's Modified Eagle's medium (DMEM) containing 100 U/mL of penicillin (Pen) and 100 μg/mL of streptomycin (Strep) on a 48-well plate (Costar® #3548), and incubated at 37° C. with 5% CO2. After 2 h, the cell culture medium of adhered cells was removed and replaced by DMEM-Pen/Strep medium containing 0.2% of bovine serum albumin (BSA), and supplemented with the cyclic peptides at a concentration of 10^−6 or 10^−7 M. MPE-001 (DBG178, His-D-Trp-Ala-AzaTyr-D-Phe-Lys-NH2) and [azaLys^6]-GHRP-6 (His-D-Trp-Ala-Trp-D-Phe-azaLys-NH2, negative control) at 10^−6 M were used as positive and negative controls, respectively. After 1 h pre-incubation, the cells were stimulated overnight using the TLR2 ligand fibroblast-stimulating lipopeptide (R-FSL-1) (Invivogen® #L7022) at a concentration of 300 ng/mL. Supernatants were then collected for nitrite production analysis by fluorescence using 2,3-diaminonaphthalene (DAN). Briefly, 25 μL of sample was incubated with 0.5 μg of DAN in a 100 μL final volume of phosphate buffer (50 mM, pH 7.5) at room temperature in the dark. After 15 min, the reaction was stopped with 20 μL of NaOH (2.8N) and the plate was read using a fluorescence plate reader (TECAN® Safire, λexc 365 nm and λem 430 nm).

[2] = system: R-FSL-1 (TLR2 agonist)-induced TNF-α and CCL-2 release in RAW macrophages; experiment: R-FSL-1-induced TNF-α and CCL-2 release in RAW macrophages; format: cell-based, murine; conditions: 10^−7 M
Protocol: The murine RAW1 macrophage cell line was obtained from American Type Cell Collection (ATCC #TIB-71). RAW cells were seeded at 150,000 cells per well in a 48-well plate (Costar® #3548) and weaned overnight in medium (DMEM supplemented 1% penicillin/streptomycin) at 37° C. with 5% CO2. The next day, the medium was changed to DMEM-1% penicillin/streptomycin supplemented with 0.2% BSA. The cells were first pretreated with 300 μL of azapeptides DBG178 (MPE-133, reference standard), 25 (MPE-210), 26 (MPE-266), 28 (MPE-268), 32 (MPE-267), 33 (MPE-298), 38 (MPE-308), 35 (MPE-300), 39 (MPE-310) and azaLys6-GHRP-6 (as negative control) at 10^-7M for 30 min. Then, […] of the TLR2 agonist, R-FSL-1 (300 ng/ml final concentration, R-FSL-1, Invivogen® #L7022) was added for 4 h period of incubation at 37° C. with 5% CO2. At the end of the incubation period, media were collected and stored at −80° C. for TNF-α and CCL-2 assays using ELISA kits (EbioScience® #88-7391 and #88-7324). Results were analyzed by analysis of variance (ANOVA) with post hoc comparisons using Dunnett's test with a statistical software package (Graph Pad Prism® version 7.0). P<0.05 was considered statistically significant.

SMILES | IC50 (CD36) | binding to CD36 (in words) (CD36) | suppression of R-FSL-1-mediated NO production [1] | further results
C[C@H](NC(=O)[C@@H](Cc1c[nH]c2ccccc12)NC(=O)[C@@H](N)Cc1c[nH]cn1)C(=O)NN(Cc1ccc(O)cc1)C(=O)N[C@H](Cc1ccccc1)C(=O)N[C@@H](CCCCN)C(N)=O [MPE-001, His-D-Trp-Ala-AzaTyr-D-Phe-Lys-NH2, reference compound] (H-H[dW]A[azaTyr][dF]K-NH2) | ~2 µM |  |  | 
C=CCN1CC#CCC(NC(=O)[C@H](C)N)C(=O)N[C@H](Cc2c[nH]c3ccccc23)C(=O)N[C@@H](C)C(=O)N[C@@H](Cc2c[nH]c3ccccc23)C(=O)N[C@H](Cc2ccccc2)C(=O)N[C@H](C(N)=O)CCC1 (some centres unmarked) [MPE-048] | 13.7 µM | detectable binding |  | 
C=CCN1CC#CC[C@@H](NC(=O)[C@H](C)N)C(=O)N[C@H](Cc2c[nH]c3ccccc23)C(=O)N[C@@H](C)C(=O)N[C@@H](Cc2c[nH]c3ccccc23)C(=O)N[C@H](Cc2ccccc2)C(=O)N[C@H](C(N)=O)CCCC1 [MPE-074] | 1.04 µM | detectable binding |  | 
C=CCN1CC#CC[C@H](NC(=O)[C@H](C)N)C(=O)N[C@H](Cc2c[nH]c3ccccc23)C(=O)N[C@@H](C)C(=O)N[C@@H](Cc2c[nH]c3ccccc23)C(=O)N[C@H](Cc2ccccc2)C(=O)N[C@H](C(N)=O)CCCC1 [MPE-075] | 0.66 µM | detectable binding | significant suppression | 
C=CCN1CC#CC[C@@H](NC(=O)[C@H](C)N)C(=O)N[C@@H](C)C(=O)N[C@@H](Cc2c[nH]c3ccccc23)C(=O)N[C@H](Cc2ccccc2)C(=O)N[C@H](C(N)=O)CCCC1 [MPE-110] | 3.32 µM | detectable binding |  | 
C=CCN1CC#CC[C@H](NC(=O)[C@H](C)N)C(=O)N[C@@H](C)C(=O)N[C@@H](Cc2c[nH]c3ccccc23)C(=O)N[C@H](Cc2ccccc2)C(=O)N[C@H](C(N)=O)CCCC1 [MPE-111] | 0.24 µM | detectable binding | significant suppression | 

Continued, in another order:

IC50 (CD36) | binding to CD36 (in words) (CD36) | SMILES | suppression of R-FSL-1-mediated NO production [1] | further results
14.3 µM |  | C=CCN1CC#CCN(NC(=O)C(C)N)C(=O)N[C@H](Cc2c[nH]c3ccccc23)C(=O)N[C@@H](C)C(=O)N[C@@H](Cc2c[nH]c3ccccc23)C(=O)N[C@H](Cc2ccccc2)C(=O)N[C@H](C(N)=O)CCCC1 (stereo in doubt) [MPE-202] |  | 
2.26 µM |  | C=CCN1CC#CCN(NC(=O)C(N)C(C)C)C(=O)N[C@H](Cc2c[nH]c3ccccc23)C(=O)N[C@@H](C)C(=O)N[C@@H](Cc2c[nH]c3ccccc23)C(=O)N[C@H](Cc2ccccc2)C(=O)N[C@H](C(N)=O)CCCC1 (stereo in doubt) [MPE-203] |  | 
3.26 µM | detectable binding | C=CCN1CC#CCN(NC(=O)[C@@H](C)N)C(=O)N[C@H](Cc2c[nH]c3ccccc23)C(=O)N[C@@H](C)C(=O)NN(Cc2ccc(OC)cc2)C(=O)N[C@H](Cc2ccccc2)C(=O)N[C@H](C(N)=O)CCCC1 [MPE-189] | significant suppression | 
2.06 µM |  | CN1CC#CCN(NC(=O)[C@@H](Cc2c[nH]c3ccccc23)NC(=O)[C@@H](N)Cc2cnc[nH]2)C(=O)N[C@@H](Cc2c[nH]c3ccccc23)C(=O)N[C@H](Cc2ccccc2)C(=O)N[C@H](C(N)=O)CCCC1 [MPE-210] |  | effect on R-FSL-1-induced CCL-2 release [2]: no significant effect; effect on R-FSL-1-induced TNF-α release [2]: no significant effect
0.68 µM |  | C=CCN1CC#CCN(NC(=O)[C@@H](Cc2c[nH]c3ccccc23)NC(=O)[C@@H](N)Cc2cnc[nH]2)C(=O)N[C@@H](Cc2c[nH]c3ccccc23)C(=O)N[C@H](Cc2ccccc2)C(=O)N[C@H](C(N)=O)CCCC1 [MPE-266] | significant suppression | effect on R-FSL-1-induced CCL-2 release [2]: significant inhibitory effect; effect on R-FSL-1-induced TNF-α release [2]: significant inhibitory effect
 | no significant binding affinity | C=CCN1CC#CCN(N)C(=O)N[C@H](Cc2c[nH]c3ccccc23)C(=O)N[C@@H](C)C(=O)N[C@@H](Cc2c[nH]c3ccccc23)C(=O)N[C@H](Cc2ccccc2)C(=O)N[C@H](C(N)=O)CCCC1 [MPE-268] |  | suppression of NO production compared with positive control MPE-001 at the same concentration ([1]; 10^−7 M, FIG. 4F): more important; suppression of R-FSL-1-mediated NO production at 10^−7 M ([1]; 10^−7 M, further analyses, FIG. 4F): significant suppression; R-FSL-1-mediated NO production, % of control ([1]; control = R-FSL-1 only, noticeable reduction without reaching significance (P<0.01)): about 80 % of control; effect on R-FSL-1-induced CCL-2 release [2]: no significant effect; effect on R-FSL-1-induced TNF-α release [2]: no significant effect
10 µM and 10.6 µM |  | C=CCN1CC#CCN(NC(=O)[C@H](C)N)C(=O)N[C@H](Cc2c[nH]c3ccccc23)C(=O)N[C@@H](C)C(=O)N[C@H](C(=O)N[C@H](Cc2ccccc2)C(=O)N[C@@H](CCCCN)C(N)=O)CCCC1 [MPE-300] | significant suppression | 
11.6 µM | detectable binding | C=CCN1CC#CCN(NC(=O)[C@H](C)N)S(=O)(=O)N[C@H](Cc2c[nH]c3ccccc23)C(=O)N[C@@H](C)C(=O)N[C@@H](Cc2c[nH]c3ccccc23)C(=O)N[C@H](Cc2ccccc2)C(=O)N[C@H](C(N)=O)CCCC1 [MPE-400] |  | 
